Test results taken from BindingDB's records for doi:10.1021/jm00352a016 (1983).

Target: Adenylate kinase 2 (Rattus norvegicus) (UniProt P29410)
Assay: Inhibitory activity against rat adenylate kinase II (AK-II) isoenzyme was determined in the presence of ATP, non competitive inhibition

Ki: 87 mM
Compound: Nc1ncnc2c1ncn2[C@@H]1O[C@H](CO)[C@@H](O)[C@H]1O [[U-14C]adenosine]
